The values that follow come from patent US8969380B2, “Secondary 8-hydroxyquinoline-7-carboxamide derivatives for use as antifungal agents” (Polichem SA, priority 2009, dated 2015).

Data set [1] has as its system Aspergillus Niger (ATCC 16404). In words: Broth micro-dilution susceptibility test (MIC). The data set is classed as cell-based. Particulars: ATCC16404, 120 h, geometric mean of two single experiments, five days at 35° C. The protocol:
(§1) Trichophyton Rubrum (ATCC 28188, PBI International); Trichophyton Mentagrophytes (ATCC 9533, PBI International); Aspergillus Niger (ATCC 16404, PBI International); Scopulariopsis Brevicaulis (ATCC 36840, DSMZ); Candida Albicans (ATCC 90028, PBI International); Candida Glabrata (ATCC 90030, DSMZ).
(§2) Strains were prepared from freeze-dried ampoules or freeze-dried pellets. An isolation of the suspensions was made on Potato Dextrose Agar (PDA) to test the strains purity. A strains' massive growth was then made streaking microbial suspensions on PDA plates.
(§3) Incubation was at 30° C. for 48-72 Hours (Candida yeasts) and for 7-10 days (filamentous fungi).
(§4) The yeasts' colonies and the filamentous fungi's conidia were harvested with 3-5 mL of RPMI 1640+50% glycerol and the aliquots frozen at −80° C.
(§5) Compounds' minimal inhibition concentration (MIC) was determined through broth micro-dilution susceptibility test using a method developed in agreement with the National Committee for Clinical Laboratory Standards (NCCLS) (National Committee for Clinical Laboratory Standards. Reference Method for Broth Dilution Antifungal Susceptibility Testing of Yeasts; Approved standard-Second Edition M27-A2. 2002; Vol. 22, No. 15) (National Committee for Clinical Laboratory Standards. Reference Method for Broth Dilution Antifungal Susceptibility Testing of Filamentous Fungi; Approved standard M38-A. 2002; Vol. 22, No. 16).
(§6) Assays were carried out in RPMI 1640 with L-glutamine medium buffered to pH 7 with 0.165M 3-(N-morpholino)propanesulfonic acid (MOPS) and 10M NaOH and supplemented with 18 g glucose/liter. The tests were performed using 96 well sterile plates (inoculum size of 1×10^5 CFU/mL). Compounds stock solutions were prepared at 12.8 mg/mL in 100% DMSO. A series of twofold dilutions were prepared in plate using RPMI 1640. Final concentrations ranged from 0.125 to 128 μg/mL at 1% DMSO.
Background: In broth dilution the organism is exposed to a series of concentrations in liquid medium.

For data set [2], the system named is Candida Albicans (ATCC 90028). The experiment in a line: Broth micro-dilution susceptibility test (MIC). The data set is classed as cell-based. Particulars: ATCC90028, geometric mean of two single experiments, 48 h at 35° C. The protocol: as §1, §2, §3, §4, §5, §6
In data set [3] the test system is Candida Glabrata (ATCC 90030). In words: Broth micro-dilution susceptibility test (MIC). The note with it: Nakaseomyces glabratus, ATCC90030; geometric mean of two single experiments; 48 h at 35° C. The data set is classed as cell-based. As for the experimental part: as §1, §2, §3, §4, §5, §6
Data set [4] has as its system Scopulariopsis Brevicaulis (ATCC 36840). In words: Broth micro-dilution susceptibility test (MIC). The data set is classed as cell-based. Particulars: ATCC36840, 120 h, geometric mean of two single experiments, five days at 35° C. As for the experimental part: as §1, §2, §3, §4, §5, §6
Data set [5] relates to Trichophyton Mentagrophytes (ATCC 9533). In words: Broth micro-dilution susceptibility test (MIC). The data set is classed as cell-based. The note with it: ATCC9533, 120 h, geometric mean of two single experiments, five days at 35° C., read-out: MIC Tricophyton Mentagrophytes ATCC 9533. As for the experimental part: as §1, §2, §3, §4, §5, §6
Data set [6] concerns Trichophyton Rubrum (ATCC 28188). The experiment in a line: Broth micro-dilution susceptibility test (MIC). The data set is classed as cell-based. Particulars: ATCC28188, 120 h, geometric mean of two single experiments, five days at 35° C., read-out: MIC Trycophyton Rubrum ATCC 28188. The protocol: as §1, §2, §3, §4, §5, §6
In data set [7] the test system is Candida Glabrata (ATCC 90030). The experiment in a line: Assessment of the mechanism of action: antifungal activity with or without 100 μM Fe3+. The data set is classed as cell-based. Particulars: 100 μM FeCl3 in the test medium, OD at 540 nm. As for the experimental part:
To verify if the compounds mechanism of action is the chelation of iron ions, the MIC determination with Candida glabrata (ATCC 90030) strain was performed by the addition of excessive iron ions (100 μM FeCl3) in the test medium. The viability of cells exposed to drugs, with or without the metal ion Fe^3+, was evaluated by the OD measure at 540 nm.
The potency of compounds described in Example 3, 4, 11 12, E8 and NiK-29298 were evaluated on Candida glabrata in presence and in absence of 100 μM (100 micromoles) Fe^3+.
In all figures, the lines and dots represent the percent inhibition of the fungal growth (in ordinate) by adding different concentrations of antifungal agents (in abscissa). Blue lines and dots are the experiments performed without iron supplementation, while red lines and dots represent the results of the experiments performed in presence of 100 μM Fe^3+. […] Conversely, Fe^3+ has no effect on amphotericin, an antifungal agent known in the art to have a mechanism of action different from that of ciclopirox.

In data set [8] the test system is 6 strains tested, including yeasts, dermatophytes and molds. In words: Spectrum of antifungal activity over the 6 strains tested. Particulars: 6 strains: yeasts. The data set is classed as cell-based. The protocol: as §1, §5, §6
The next data set relates to invasive aspergillosis. The note with it: daily administered at 10 mg/kg; cited from earlier work.

Converted amounts (≈) assume the structure as drawn.

`O=C(NCc1cccs1)c1ccc2cccnc2c1O` [Example 1, 8-Hydroxy-N-(thiophen-2-ylmethyl)quinoline-7-carboxamide]: the minimal inhibitory concentration (MIC) in data set [1] came out at 0.25 µg/mL (≈ 0.879 µM); in [2] it was 1 µg/mL (≈ 3.52 µM); in data set [3], 1 µg/mL (≈ 3.52 µM); in [4] it was 0.25 µg/mL (≈ 0.879 µM); in data set [5], 0.5 µg/mL (≈ 1.76 µM); in data set [6] it was 0.5 µg/mL (≈ 1.76 µM).
On to `O=C(NCC1CCCCC1)c1ccc2cccnc2c1O` [Example 2, 8-Hydroxy-N-(cyclohexylmethyl)quinoline-7-carboxamide], for which the MIC came out at 0.35 µg/mL (≈ 1.23 µM) in data set [1]; 1.41 µg/mL (≈ 4.96 µM) in data set [2]; 1.41 µg/mL (≈ 4.96 µM) in data set [3]; 2 µg/mL (≈ 7.03 µM) in data set [4]; 0.71 µg/mL (≈ 2.5 µM) in data set [5]; 1 µg/mL (≈ 3.52 µM) in data set [6].
For `O=C(NCc1ccccc1)c1ccc2cccnc2c1O` [Example 3, 8-Hydroxy-N-benzyl-quinoline-7-carboxamide], the MIC in [1] was 0.18 µg/mL (≈ 0.647 µM); in data set [2] it was 1 µg/mL (≈ 3.59 µM); in [3], 1 µg/mL (≈ 3.59 µM); in data set [4], 0.35 µg/mL (≈ 1.26 µM); in data set [5] it was 0.18 µg/mL (≈ 0.647 µM); in data set [6] it was 0.35 µg/mL (≈ 1.26 µM).
With `O=C(NCc1ccc(Cl)cc1)c1ccc2cccnc2c1O` [Example 4, 8-Hydroxy-N-(4-chlorobenzyl)quinoline-7-carboxamide], the MIC was 0.35 µg/mL (≈ 1.12 µM) in [1]; 2 µg/mL (≈ 6.39 µM) in [2]; 1 µg/mL (≈ 3.2 µM) in data set [3]; 0.71 µg/mL (≈ 2.27 µM) in data set [4]; 0.5 µg/mL (≈ 1.6 µM) in [5]; 0.71 µg/mL (≈ 2.27 µM) in data set [6].
In the case of `COc1ccc(NC(=O)c2ccc3cccnc3c2O)cc1` [Example 5, 8-Hydroxy-N-(4-methoxyphenyl)quinoline-7-carboxamide], the MIC in [1] was 0.71 µg/mL (≈ 2.41 µM); in data set [2], 0.5 µg/mL (≈ 1.7 µM); in [3], 0.71 µg/mL (≈ 2.41 µM); in data set [4] it was 0.71 µg/mL (≈ 2.41 µM); in data set [5], 0.5 µg/mL (≈ 1.7 µM); in data set [6] it was 0.35 µg/mL (≈ 1.19 µM).
Turning to `O=C(NCc1ccc(C(F)(F)F)cc1)c1ccc2cccnc2c1O` [Example 6, 8-Hydroxy-N-(4-(trifluoromethyl)benzyl)quinoline-7-carboxamide], the MIC in data set [1] is 0.5 µg/mL (≈ 1.44 µM); in data set [2], 1.41 µg/mL (≈ 4.07 µM); in data set [3] it was 1.41 µg/mL (≈ 4.07 µM); in [4], 1.41 µg/mL (≈ 4.07 µM); in data set [5] it was 1 µg/mL (≈ 2.89 µM); in [6], 1.41 µg/mL (≈ 4.07 µM).
On to `O=C(Nc1ccccc1)c1ccc2cccnc2c1O` [Example 7, 8-Hydroxy-N-phenyl-quinoline-7-carboxamide], for which the MIC in data set [1] was found to be 0.5 µg/mL (≈ 1.89 µM); in data set [2], 0.5 µg/mL (≈ 1.89 µM); in data set [3], 1 µg/mL (≈ 3.78 µM); in data set [4], 2 µg/mL (≈ 7.57 µM); in [5], 0.71 µg/mL (≈ 2.69 µM); in data set [6] it was 0.5 µg/mL (≈ 1.89 µM).
As for `O=C(NCc1ccccc1O)c1ccc2cccnc2c1O` [Example 8, 8-Hydroxy-N-(2-hydroxybenzyl)quinoline-7-carboxamide], the minimum inhibitory concentration (MIC) was 0.25 µg/mL (≈ 0.849 µM) in data set [1]; 2 µg/mL (≈ 6.8 µM) in data set [2]; 2 µg/mL (≈ 6.8 µM) in data set [3]; 1 µg/mL (≈ 3.4 µM) in data set [4]; 0.5 µg/mL (≈ 1.7 µM) in [5]; 0.71 µg/mL (≈ 2.41 µM) in data set [6].
On to `O=C(NCc1ccco1)c1ccc2cccnc2c1O` [Example 9, 8-Hydroxy-N-(furan-2-ylmethyl)quinoline-7-carboxamide], for which the minimum inhibitory concentration (MIC) in data set [1] was determined as 1 µg/mL (≈ 3.73 µM); in data set [2] it was 0.71 µg/mL (≈ 2.65 µM); in [3], 0.71 µg/mL (≈ 2.65 µM); in [4], 0.71 µg/mL (≈ 2.65 µM); in data set [5], 1 µg/mL (≈ 3.73 µM); in [6], 0.71 µg/mL (≈ 2.65 µM).
With `O=C(NCc1cccnc1)c1ccc2cccnc2c1O` [Example 10, 8-Hydroxy-N-(pyridin-3-ylmethyl)quinoline-7-carboxamide], the minimal inhibitory concentration (MIC) was found to be 1 µg/mL (≈ 3.58 µM) in data set [1]; 4 µg/mL (≈ 14.3 µM) in [2]; 11.3 µg/mL (≈ 40.5 µM) in data set [3]; 1 µg/mL (≈ 3.58 µM) in data set [4]; 2 µg/mL (≈ 7.16 µM) in data set [5]; 2 µg/mL (≈ 7.16 µM) in data set [6].
Take `COc1ccc(CNC(=O)c2ccc3cccnc3c2O)cc1` [Example 11, 8-Hydroxy-N-(4-methoxybenzyl)quinoline-7-carboxamide]: the MIC in [1] was 1 µg/mL (≈ 3.24 µM); in data set [2], 2 µg/mL (≈ 6.49 µM); in data set [4] it was 1 µg/mL (≈ 3.24 µM); in data set [5] it was 1 µg/mL (≈ 3.24 µM); in data set [6] it was 1 µg/mL (≈ 3.24 µM).
Regarding `O=C(NCc1ccc(OCc2ccccc2)cc1)c1ccc2ncccc2c1` [Example E8], in data set [7], the “Effect of Fe3+ on the antifungal activity (percent inhibition of fungal growth)” value (from here on “Effect … (percent inhibition of fungal growth)”) was “not inhibited”. The “Spectrum of antifungal activity” value in data set [8] is “active only on yeasts”.
The corresponding values for `O=C(NCc1ccccc1)c1ccc2ncccc2c1` [NiK-29298] are “not inhibited” and “active only on yeasts”.
For `C[C@@H]1[C@H](O)[C@@H](C)/C=C/C=C/C=C/C=C/C=C/C=C/C=C/[C@H](O[C@@H]2O[C@H](C)[C@@H](O)[C@H](N)[C@@H]2O)C[C@@H]2O[C@](O)(C[C@@H](O)C[C@@H](O)[C@H](O)CC[C@@H](O)C[C@@H](O)CC(=O)O[C@H]1C)C[C@H](O)[C@H]2C(=O)O` [amphotericin, Amphotericin B], the “Effect … (percent inhibition of fungal growth)” value in [7] is given as “no effect”. Also, the rates of nephrotoxicity with invasive aspergillosis was 31%.
Regarding `Cc1cc(C2CCCCC2)n(O)c(=O)c1` [ciclopirox], the “Effect … (percent inhibition of fungal growth)” value in data set [7] was “completely inhibited”.

In general, MIC refers to the lowest concentration found to suppress growth.
